Measured values as given in patent US7326407B2, “Amine, amide, sulphonamide and carbamate derivatives of benzalmalonic salts and photoprotective cosmetic compositions comprised thereof” (L'Oreal, priority 2003, dated 2008).
Counter-ions that a name gives are not always drawn.

Assay: UV absorption spectrum in water
Format: physicochemical
Details: for UV E1% / UV εmax: at λmax

| Molecule | UV λmax [nm] | UV E1% | UV εmax [L/mol/cm] |
| --- | --- | --- | --- |
| Nc1ccc(C=C(C(=O)O)C(=O)O)cc1 [Example 2, disodium salt of 2-(4-aminobenzylidene)malonic acid] | 305 | 670 | 16800 |
| Nc1ccc(C=C(C(=O)O)C(=O)O)cc1 [Example 1, dipiperidinium salt of 2-(4-aminobenzylidene)malonic acid] | 305 | 446 | 16800 |
| Nc1ccc(C=C(C(=O)O)C(=O)O)cc1 [Example 3, dipotassium salt of 2-(4-aminobenzylidene)malonic acid] | 306 | 496 | 14000 |

Continued, values first:

| UV λmax [nm] | UV E1% | UV εmax [L/mol/cm] | Molecule |
| --- | --- | --- | --- |
| 292 | 422 | 14000 | dipotassium salt of 2-(4-laurylamidobenzylidene)malonic acid [Example 5] |
| 292 | 498 | 16200 | CC(=O)Nc1ccc(C=C(C(=O)O)C(=O)O)cc1 [Example 4, dipotassium salt of 2-(4-acetamidobenzylidene)malonic acid] |
